Among the data in patent publication US20230374007A1, “COMPOUNDS AND THEIR USE IN TREATING CANCER” (AstraZeneca AB, priority 2020, published 2023) are SALL4 degradation, IKZF1 degradation and IC50 values, retold here.

In experiment [1] the target is T1, endogenous SALL4 protein in Kelly cells (Homo sapiens, UniProt Q9UJQ4).
T1 construct: the endogenous SALL4 protein; endogenous in cells; host or cells: Kelly
Nature of the experiment: Endogenous SALL4 degradation assay (SDS-PAGE). Type of experiment: cell-based. The note with it: 10 μM, 20 h of treatment.

Experiment [2] deals with T2, endogenous IKZF1 protein in NB4 cells (Homo sapiens, UniProt Q13422).
T2 construct: the endogenous IKZF1 protein; endogenous in cells; host or cells: NB4
T2 sequence (Q13422 whole entry): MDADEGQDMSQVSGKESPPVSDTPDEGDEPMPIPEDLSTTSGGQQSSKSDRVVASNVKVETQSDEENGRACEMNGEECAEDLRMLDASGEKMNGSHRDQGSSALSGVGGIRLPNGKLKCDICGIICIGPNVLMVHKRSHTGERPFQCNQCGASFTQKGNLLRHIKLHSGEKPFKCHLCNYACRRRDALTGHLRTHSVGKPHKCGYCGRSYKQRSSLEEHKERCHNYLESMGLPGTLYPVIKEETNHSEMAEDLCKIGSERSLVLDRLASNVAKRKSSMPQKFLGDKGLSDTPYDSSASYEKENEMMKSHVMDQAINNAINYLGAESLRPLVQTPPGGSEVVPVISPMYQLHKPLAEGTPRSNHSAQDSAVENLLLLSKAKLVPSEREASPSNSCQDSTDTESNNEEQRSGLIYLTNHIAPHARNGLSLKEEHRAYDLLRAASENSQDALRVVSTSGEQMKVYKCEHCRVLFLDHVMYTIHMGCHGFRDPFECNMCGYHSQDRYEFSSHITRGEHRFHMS
The experiment is described as follows: Endogenous Ikaros 1 (IKZF1) degradation assay (SDS-PAGE). Type of experiment: cell-based. The note with it: 1 μM and 10 μM, 20 h of treatment.

For experiment [3], the target named is T3, cereblon (CRBN)—DNA damage protein 1 (DDB1) complex (Homo sapiens, UniProt Q96SW2).
T3 construct: encoding amino acid residues 1 to 442 (Uniprot Q96SW2); hexahistidine (N); thrombin cleavage site (N); made in house; host or cells: Sf9 insect cells (baculovirus co-infection)
T3 sequence (Q96SW2 with tags, fused parts or gaps): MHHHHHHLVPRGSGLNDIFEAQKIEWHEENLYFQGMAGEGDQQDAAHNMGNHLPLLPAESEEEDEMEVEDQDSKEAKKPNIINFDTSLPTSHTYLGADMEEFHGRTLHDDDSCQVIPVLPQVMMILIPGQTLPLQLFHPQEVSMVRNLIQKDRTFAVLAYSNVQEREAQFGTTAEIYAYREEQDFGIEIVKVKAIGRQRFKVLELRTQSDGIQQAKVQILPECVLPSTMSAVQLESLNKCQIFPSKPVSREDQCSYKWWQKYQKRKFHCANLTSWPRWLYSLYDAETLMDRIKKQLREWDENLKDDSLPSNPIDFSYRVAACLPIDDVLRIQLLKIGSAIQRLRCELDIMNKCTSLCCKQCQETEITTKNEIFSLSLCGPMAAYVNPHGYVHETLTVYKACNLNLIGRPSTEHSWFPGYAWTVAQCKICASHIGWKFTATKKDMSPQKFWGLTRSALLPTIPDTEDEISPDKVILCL
The experiment is described as follows: Cereblon HTRF binding assay. The method in brief: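 Biotinylated His-tagged CRBN-DDB1 (0.2 nM, baculovirus-expressed) was combined with 0.2 nM terbium cryptate streptavidin and 2 nM Cy5-lenalidomide probe in 50 mM Tris-HCl pH 7.5, 100 mM NaCl, 1 mM TCEP, 500 μM EDTA, 0.01% Pluronic F127 for 2 h at r.t. HTRF ratio was normalized to plate controls. IC50 came from a Hill fit, given as mean of one or more experiments.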
(In general: In TR-FRET formats the signal depends on donor and acceptor labels being close together.)

T1 sequence (Q9UJQ4 whole entry): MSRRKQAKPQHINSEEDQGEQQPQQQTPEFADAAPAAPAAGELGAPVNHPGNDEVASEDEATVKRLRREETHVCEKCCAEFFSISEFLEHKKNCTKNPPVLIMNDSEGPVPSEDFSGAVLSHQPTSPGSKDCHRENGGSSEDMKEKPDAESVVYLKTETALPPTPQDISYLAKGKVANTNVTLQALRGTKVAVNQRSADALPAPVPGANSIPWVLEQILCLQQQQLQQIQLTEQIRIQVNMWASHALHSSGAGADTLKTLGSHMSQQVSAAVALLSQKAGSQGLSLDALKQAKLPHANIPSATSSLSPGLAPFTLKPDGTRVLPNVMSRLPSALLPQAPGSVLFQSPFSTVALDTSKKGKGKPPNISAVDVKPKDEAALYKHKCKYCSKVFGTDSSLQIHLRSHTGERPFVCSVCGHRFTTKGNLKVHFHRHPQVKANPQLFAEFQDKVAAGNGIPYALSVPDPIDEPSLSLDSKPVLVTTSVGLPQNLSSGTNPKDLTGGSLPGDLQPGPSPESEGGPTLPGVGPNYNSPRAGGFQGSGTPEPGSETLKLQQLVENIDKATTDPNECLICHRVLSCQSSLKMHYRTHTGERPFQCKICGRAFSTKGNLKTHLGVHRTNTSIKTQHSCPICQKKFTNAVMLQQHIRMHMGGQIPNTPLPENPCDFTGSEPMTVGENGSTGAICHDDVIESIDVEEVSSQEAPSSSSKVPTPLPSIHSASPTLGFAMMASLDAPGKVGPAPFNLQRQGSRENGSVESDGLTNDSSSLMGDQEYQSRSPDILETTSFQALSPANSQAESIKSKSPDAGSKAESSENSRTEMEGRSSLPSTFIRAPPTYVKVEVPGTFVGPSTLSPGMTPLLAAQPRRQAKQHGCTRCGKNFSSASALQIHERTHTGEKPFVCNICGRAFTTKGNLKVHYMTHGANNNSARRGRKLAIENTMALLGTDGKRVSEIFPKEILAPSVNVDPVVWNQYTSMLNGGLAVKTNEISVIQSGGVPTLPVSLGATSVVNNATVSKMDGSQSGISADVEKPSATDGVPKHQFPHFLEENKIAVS

In the case of `CN1CCCc2ccc(N3CCC(=O)NC3=O)cc21` [Example 33, 1-(1-Methyl-1,2,3,4-tetrahydroquinolin-7-yl)dihydropyrimidine-2,4 (1H,3H)-dione], the SALL4 degradation result in experiment [1] is recorded as “no observable/meaningful SALL4 degradation”. In addition, the IKZF1 degradation result in experiment [2] is given as “no observable/meaningful IKZF1 degradation”. Besides, in experiment [3], the half-maximal inhibitory concentration (IC50) – broadly, the point on the concentration scale where inhibition reaches its midpoint – is 762 nM. Turning to `Nc1cccc2c1CN(C1CCC(=O)NC1=O)C2=O` (stereo not drawn) [lenalidomide, reference compound], in experiment [2], the IKZF1 degradation entry is listed as “degradation of IKZF1 to an undetected level”. As to `O=C1CCN(c2cncc3[nH]ccc23)C(=O)N1` [Example 17, 1-(1H-Pyrrolo[2,3-c]pyridin-4-yl)dihydropyrimidine-2,4 (1H,3H)-dione], in experiment [2], the IKZF1 degradation entry is recorded as “no observable/meaningful IKZF1 degradation”. This molecule gave a concentration for half-maximal inhibition (IC50) in experiment [3] of 206 nM.

Regarding `O=C1CCN(c2ccc3cc[nH]c3c2)C(=O)N1` [Example 55, 1-(1H-Indol-6-yl)dihydropyrimidine-2,4 (1H,3H)-dione], in experiment [1], the SALL4 degradation entry was “no observable/meaningful SALL4 degradation”. The IKZF1 degradation entry in experiment [2] is recorded as “no observable/meaningful IKZF1 degradation”. Moreover, the IC50 in experiment [3] was determined as 220 nM.

Regarding `Cn1ccc2ccc(N3CCC(=O)NC3=O)cc21` [Example 59, 1-(1-Methyl-1H-indol-6-yl)dihydropyrimidine-2,4 (1H,3H)-dione], in experiment [1], the SALL4 degradation entry is “no observable/meaningful SALL4 degradation”. For the same molecule, the half-inhibitory concentration (IC50) in experiment [3] is 329 nM. For `O=C1CCN(c2cnc3cc[nH]c3c2)C(=O)N1` [Example 40, 1-(1H-Pyrrolo[3,2-b]pyridin-6-yl)dihydropyrimidine-2,4 (1H,3H)-dione], the IKZF1 degradation result in experiment [2] is listed as “no observable/meaningful IKZF1 degradation”. Moreover, the IC50 in experiment [3] came to 186 nM. On to `O=C1CCC(N2C(=O)c3ccccc3C2=O)C(=O)N1` (stereo not drawn) [thalidomide, reference compound], for which the SALL4 degradation result in experiment [1] is reported as “degradation of SALL4 to an undetected level”. Take `O=C1CCN(c2ccc3ccnn3c2)C(=O)N1` [Example 3, 1-(Pyrazolo[1,5-a]pyridin-6-yl)dihydropyrimidine-2,4 (1H,3H)-dione]: the IC50 in experiment [3] is 3280 nM.

As for `Cn1ncc2cc(N3CCC(=O)NC3=O)ccc21` [Example 6, 1-(1-Methyl-1H-indazol-5-yl)dihydropyrimidine-2,4 (1H,3H)-dione], in experiment [3], the IC50 is 3930 nM.

`COCc1cc(N2CCC(=O)NC2=O)c2ccn(C)c2c1` [Example 19, 1-(6-(Methoxymethyl)-1-methyl-1H-indol-4-yl)dihydropyrimidine-2,4 (1H,3H)-dione] returned an IC50 in experiment [3] of 430 nM. Consider `O=C1CCN(c2ccc3[nH]cc(N4CCNCC4)c3c2)C(=O)N1` [Example 77, 1-(3-(Piperazin-1-yl)-1H-indol-5-yl)dihydropyrimidine-2,4 (1H,3H)-dione], for which the IC50 in experiment [3] came out at 562 nM. Turning to `CC(=O)N1CCC(n2ccc3cc(N4CCC(=O)NC4=O)ccc32)CC1` [Example 115, 1-(1-(1-Acetylpiperidin-4-yl)-1H-indol-5-yl)dihydropyrimidine-2,4 (1H,3H)-dione], in experiment [3], the IC50 was 933 nM. In turn, `Cn1ccc2cc(N3CCC(=O)NC3=O)cnc21` [Example 11, 1-(1-Methyl-1H-pyrrolo[2,3-b]pyridin-5-yl)dihydropyrimidine-2,4 (1H,3H)-dione] yielded an IC50 in experiment [3] of 26900 nM. For the molecule `CN1CCc2cc(N3CCC(=O)NC3=O)ccc21` [Example 21, 1-(1-Methylindolin-5-yl)dihydropyrimidine-2,4 (1H,3H)-dione], the half-maximal inhibitory concentration (IC50) in experiment [3] came to 784 nM. Compared with the last molecule, the IC50 is about 34-fold lower.

For `O=C1CCN(c2ccc3c(N4CCNCC4)c[nH]c3c2)C(=O)N1` [Example 71, 1-(3-(Piperazin-1-yl)-1H-indol-6-yl)dihydropyrimidine-2,4 (1H,3H)-dione], the 50% inhibitory concentration (IC50) in experiment [3] came to 1130 nM. This IC50 and that of the molecule before are within 1.5-fold of each other. In turn, `CC(=O)N1CCN(c2noc3cc(N4CCC(=O)NC4=O)ccc23)CC1` [Example 95, 1-(3-(4-Acetylpiperazin-1-yl)benzo[d]isoxazol-6-yl)dihydropyrimidine-2,4 (1H,3H)-dione] displayed a half-inhibitory concentration (IC50) in experiment [3] of 6580 nM. This IC50 lies about 5.8-fold higher than the previous one.

`O=C1CCN(c2ccc3c(c2)C(=O)NC3)C(=O)N1` [Example 44, 1-(3-Oxoisoindolin-5-yl)dihydropyrimidine-2,4 (1H,3H)-dione]: the IC50 in experiment [3] is 8470 nM. As to `O=C1CCN(c2cc(Cl)c3cc[nH]c3c2)C(=O)N1` [Example 53, 1-(4-Chloro-1H-indol-6-yl)dihydropyrimidine-2,4 (1H,3H)-dione], in experiment [3], the concentration for half-maximal inhibition (IC50) came out at 244 nM. Against the preceding molecule, the IC50 is about 35-fold lower. For the molecule `O=C1CCN(c2ccc3[nH]c(=O)oc3c2)C(=O)N1` [Example 46, 1-(2-Oxo-2,3-dihydrobenzo[d]oxazol-6-yl)dihydropyrimidine-2,4 (1H,3H)-dione], the IC50 in experiment [3] came out at 3750 nM. `O=C1CCN(c2ccn3cc(C4CCNCC4)nc3c2)C(=O)N1` [Example 92, 1-(2-(Piperidin-4-yl)imidazo[1,2-a]pyridin-7-yl)dihydropyrimidine-2,4 (1H,3H)-dione]: in experiment [3], the IC50 was 5240 nM.

In turn, `CN1CCC(n2ncc3cc(N4CCC(=O)NC4=O)ccc32)CC1` [Example 108, 1-(1-(1-Methylpiperidin-4-yl)-1H-indazol-5-yl)dihydropyrimidine-2,4 (1H,3H)-dione] returned a half-inhibitory concentration (IC50) in experiment [3] of 3810 nM.

With `O=C1CCN(c2ccc3cnoc3c2)C(=O)N1` [Example 39, 1-(Benzo[d]isoxazol-6-yl)dihydropyrimidine-2,4 (1H,3H)-dione], the IKZF1 degradation result in experiment [2] is “no observable/meaningful IKZF1 degradation”. Further, the IC50 in experiment [3] came out at 82 nM. Consider `CN1CCC(c2cn(C)c3cc(N4CCC(=O)NC4=O)ccc23)CC1` [Example 119, 1-(1-Methyl-3-(1-methylpiperidin-4-yl)-1H-indol-6-yl)dihydropyrimidine-2,4 (1H,3H)-dione], for which the IC50 in experiment [3] was 1450 nM.

With `O=C1NC(=O)N(c2ccc3cc[nH]c3c2)CC1F` (stereo not drawn) [Example 45, 5-Fluoro-1-(1H-indol-6-yl)dihydropyrimidine-2,4 (1H,3H)-dione], the IC50 in experiment [3] was 967 nM. In experiment [3], `Cn1cc(N2CCNCC2)c2cc(N3CCC(=O)NC3=O)ccc21` [Example 76, 1-(1-Methyl-3-(piperazin-1-yl)-1H-indol-5-yl)dihydropyrimidine-2,4 (1H,3H)-dione] showed an IC50 of 1920 nM. This IC50 lies about 2-fold higher than the previous one. Same read-out and setting: the figure for `Cn1cc2cc(N3CCC(=O)NC3=O)ccc2n1` [Example 8, 1-(2-Methyl-2H-indazol-5-yl)dihydropyrimidine-2,4 (1H,3H)-dione] is 4570 nM; for `O=C1CCN(c2ccc3cn[nH]c3c2)C(=O)N1` [Example 42, 1-(1H-Indazol-6-yl)dihydropyrimidine-2,4 (1H,3H)-dione] it is 2110 nM; for `CN1CCC(c2c[nH]c3cc(N4CCC(=O)NC4=O)ccc23)CC1` [Example 117, 1-(3-(1-Methylpiperidin-4-yl)-1H-indol-6-yl)dihydropyrimidine-2,4 (1H,3H)-dione] it is 2160 nM. On the same count and under the same terms, the figure for `CNC(=O)Cc1c[nH]c2cc(N3CCC(=O)NC3=O)ccc12` [Example 66, 2-(6-(2,4-Dioxotetrahydropyrimidin-1 (2H)-yl)-1H-indol-3-yl)-N-methylacetamide] is 264 nM; for `O=C1CCN(c2ccc3oc(=O)[nH]c3c2)C(=O)N1` [Example 47, 1-(2-Oxo-2,3-dihydrobenzo[d]oxazol-5-yl)dihydropyrimidine-2,4 (1H,3H)-dione] it is 3060 nM.

In experiment [3], `O=c1[nH]c(=O)n(-c2ccc3cc[nH]c3c2)cc1F` [Example 14, 5-Fluoro-1-(1H-indol-6-yl)pyrimidine-2,4 (1H,3H)-dione] returned a half-maximal inhibitory concentration (IC50) of 516 nM.
